What was measured:
[1] = target: T1, recombinant human FLAP protein (Homo sapiens, UniProt P20292); assay: FLAP binding assay (Scintillation Proximity Assay, displacement of [125I]L-691,831); settings: recombinant human FLAP membranes, [125I]L-691,831 probe; read-out: FLAP SPA IC50
T1 construct: made in house; host or cells: Sf9 insect cells (100,000 x g membrane fraction)
T1 sequence (P20292 1-161): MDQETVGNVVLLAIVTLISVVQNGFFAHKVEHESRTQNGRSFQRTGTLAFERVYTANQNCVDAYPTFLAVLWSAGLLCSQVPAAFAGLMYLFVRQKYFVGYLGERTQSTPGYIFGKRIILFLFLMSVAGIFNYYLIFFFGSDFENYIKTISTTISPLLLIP
Procedure, shortened: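 WGA scintillation proximity beads were stirred 1 h with 5 μg of FLAP-containing membrane protein. The membranes came from baculovirus Sf9 cells, Dounce-lysed and spun to a 100,000×g pellet in buffer at pH 7.5.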

[2] = test system: synthesis of LTB4 in human whole blood; assay: human whole blood LTB4 production inhibition assay; type: cell-based; settings: Homo sapiens, heparinized human whole blood, calcimycin 20 μM; read-out: hWB LTB4 IC50
Procedure, shortened: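 LTB4 levels in plasma were measured by antibody-based HTRF after heparinized human whole blood, pretreated with compound (15 min, 37° C), was challenged with 20 μM calcimycin for 30 min at 37° C.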

For `CCn1cnc(-c2nc(C3(c4ccc(-c5cnc(N)nc5)cc4)CCC3)no2)c1` [Example 87, 5-(4-{1-[5-(1-Ethyl-1H-imidazol-4-yl)-1,2,4-oxadiazol-3-yl]-cyclobutyl}-phenyl)-pyrimidin-2-ylamine], the IC50 [1] was 0.0045 µM and the IC50 [2] was 0.15 µM.
`COCCn1cnc(-c2nc(C3(c4ccc(-c5cnc(N)nc5)cc4)CCC3)no2)c1` [Example 88, 5-[4-(1-{5-[1-(2-Methoxy-ethyl)-1H-imidazol-4-yl]-1,2,4-oxadiazol-3-yl}-cyclobutyl)-phenyl]-pyrimidin-2-ylamine] gave an IC50 [1] of 0.0063 µM and an IC50 [2] of 0.16 µM.
`COC(=O)C(C)(C)Nc1cnc(-c2nc(C3(c4ccc(-c5cnc(N)nc5)cc4)CCC3)no2)cn1` [Example 90, 2-[5-(3-{1-[4-(2-Amino-pyrimidin-5-yl)-phenyl]-cyclobutyl}-1,2,4-oxadiazol-5-yl)-pyrazin-2-ylamino]-2-methyl-propionic acid methyl ester] showed an IC50 [1] of 0.0034 µM and an IC50 [2] of 0.21 µM.
In the case of `Nc1ncc(-c2ccc(C3(c4noc(-c5ccc(=O)[nH]c5)n4)CCC3)cc2)cn1` [Example 91, 5-(3-{1-[4-(2-Amino-pyrimidin-5-yl)-phenyl]-cyclobutyl}-1,2,4-oxadiazol-5-yl)-1H-pyridin-2-one], the IC50 [1] is reported as 0.0037 µM and the IC50 [2] is reported as 0.151 µM.
For `Cn1ccc(-c2nc(C3(c4ccc(-c5cnc(N)nc5)cc4)CCC3)no2)n1` [Example 92, 5-(4-{1-[5-(1-Methyl-1I-pyrazol-3-yl)-1,2,4-oxadiazol-3-yl]-cyclobutyl}-phenyl)-pyrimidin-2-ylamine], the IC50 [1] was 0.0049 µM and the IC50 [2] was 0.15 µM.
`Nc1ncc(-c2ccc(C3(c4noc(-c5cc[nH]n5)n4)CCC3)cc2)cn1` [Example 93, 5-(4-{1-[5-(1H-Pyrazol-3-yl)-1,2,4-oxadiazol-3-yl]-cyclobutyl}-phenyl)-pyrimidin-2-ylamine] was tested, and the IC50 [1] was 0.0024 µM and the IC50 [2] was 0.16 µM.
`CN(CCO)c1cc(-c2nc(C3(c4ccc(-c5cnc(N)nc5)cc4)CCC3)no2)ccn1` [Example 94, 2-{[4-(3-{1-[4-(2-amino-pyrimidin-5-yl)-phenyl]-cyclobutyl}-1,2,4-oxadiazol-5-yl)-pyridin-2-yl]-methyl-amino}-ethanol] was tested, and the IC50 [1] was 0.0061 µM and the IC50 [2] was 0.56 µM.
For `Nc1ncc(-c2ccc(C3(c4noc(-c5ccnc(NCCO)c5)n4)CCC3)cc2)cn1` [Example 95, 2-[4-(3-{1-[4-(2-Amino-pyrimidin-5-yl)-phenyl]-cyclobutyl}-1,2,4-oxadiazol-5-yl)-pyridin-2-ylamino]-ethanol], the IC50 [1] was 0.0032 µM and the IC50 [2] was 0.13 µM.
`Nc1ncc(-c2ccc(C3(c4noc(-c5nc[nH]n5)n4)CCC3)cc2)cn1` [Example 96, 5-(4-{1-[5-(1H-1,2,4-Triazol-3-yl)-1,2,4-oxadiazol-3-yl]-cyclobutyl}-phenyl)-pyrimidin-2-ylamine] was tested, and the IC50 [1] was 0.013 µM and the IC50 [2] was 2.7 µM.
In the case of `COCCNc1cc(-c2nc(C3(c4ccc(-c5cnc(N)nc5)cc4)CCC3)no2)ccn1` [Example 97, 5-[4-(1-{5-[2-(2-Methoxy-ethylamino)-pyridin-4-yl]-1,2,4-oxadiazol-3-yl}-cyclobutyl)-phenyl]-pyrimidin-2-ylamine], the IC50 [1] is reported as 0.0029 µM and the IC50 [2] is reported as 0.092 µM.
Work on `COc1cc(-c2nc(C3(c4ccc(-c5cnc(N)nc5)cc4)CCC3)no2)ccc1O` [Example 98, 4-(3-{1-[4-(2-Amino-pyrimidin-5-yl)-phenyl]-cyclobutyl}-1,2,4-oxadiazol-5-yl)-2-methoxy-phenol] yielded an IC50 [1] of 0.0023 µM and an IC50 [2] of 0.11 µM.
With `Cc1cc(-c2nc(C3(c4ccc(-c5cnc(N)nc5)cc4)CCC3)no2)ccc1O` [Example 99, 4-(3-{1-[4-(2-Amino-pyrimidin-5-yl)-phenyl]-cyclobutyl}-1,2,4-oxadiazol-5-yl)-2-methyl-phenol] the IC50 [1] was 0.002 µM and the IC50 [2] was 0.15 µM.
For `Nc1ncc(-c2ccc(C3(c4noc(-c5ccc(O)c(Cl)c5)n4)CCC3)cc2)cn1` [Example 100, 4-(3-{1-[4-(2-Amino-pyrimidin-5-yl)-phenyl]-cyclobutyl}-1,2,4-oxadiazol-5-yl)-2-chloro-phenol], the IC50 [1] was 0.0021 µM and the IC50 [2] was 0.17 µM.
Work on `Nc1ncc(-c2ccc(C3(c4noc(-c5ccc(Cl)nc5)n4)CCC3)cc2)cn1` [Example 101, 5-(4-{1-[5-(6-Chloro-pyridin-3-yl)-1,2,4-oxadiazol-3-yl]-cyclobutyl}-phenyl)-pyrimidin-2-ylamine] yielded an IC50 [1] of 0.0033 µM and an IC50 [2] of 0.25 µM.
With `Nc1ncc(-c2ccc(C3(c4noc(-c5ccc(N6CCC[C@@H]6CO)nc5)n4)CCC3)cc2)cn1` [Example 102, {(R)-1-[5-(3-{1-[4-(2-Amino-pyrimidin-5-yl)-phenyl]-cyclobutyl}-1,2,4-oxadiazol-5-yl)-pyridin-2-yl]-pyrrolidin-2-yl}-methanol] the IC50 [1] was 0.0025 µM and the IC50 [2] was 0.18 µM.
Work on `Nc1ncc(-c2ccc(C3(c4noc(-c5ccc(N6CC[C@@H](O)C6)nc5)n4)CCC3)cc2)cn1` [Example 103, (R)-1-[5-(3-{1-[4-(2-Amino-pyrimidin-5-yl)-phenyl]-cyclobutyl}-1,2,4-oxadiazol-5-yl)-pyridin-2-yl]-pyrrolidin-3-ol] yielded an IC50 [1] of 0.0013 µM and an IC50 [2] of 0.063 µM.
Compound `Nc1ncc(-c2ccc(C3(c4noc(-c5ccc(N6CCNCC6)cc5)n4)CCC3)cc2)cn1` [Example 104] has an IC50 [1] of 0.0013 µM and an IC50 [2] of 0.099 µM.
In the case of `Nc1ncc(-c2ccc(C3(c4noc(-c5ccc(N6CC[C@H](O)C6)nc5)n4)CCC3)cc2)cn1` [Example 105, (S)-1-[5-(3-{1-[4-(2-Amino-pyrimidin-5-yl)-phenyl]-cyclobutyl}-1,2,4-oxadiazol-5-yl)-pyridin-2-yl]-pyrrolidin-3-ol], the IC50 [1] is reported as 0.0019 µM and the IC50 [2] is reported as 0.078 µM.
Work on `CCOC(=O)CCN1CCN(c2ccc(-c3nc(C4(c5ccc(-c6cnc(N)nc6)cc5)CCC4)no3)cn2)CC1` [Example 106, 3-{4-[5-(3-{1-[4-(2-Amino-pyrimidin-5-yl)-phenyl]-cyclobutyl}-1,2,4-oxadiazol-5-yl)-pyridin-2-yl]-piperazin-1-yl}-propionic acid ethyl ester] yielded an IC50 [1] of 0.0027 µM and an IC50 [2] of 0.13 µM.
Work on `Nc1ncc(-c2ccc(C3(c4noc(-c5ccc(N6CCS(=O)(=O)CC6)nc5)n4)CCC3)cc2)cn1` [Example 107, 5-[4-(1-{5-[6-(1,1-Dioxo-1λ^6-thiomorpholin-4-yl)-pyridin-3-yl]-1,2,4-oxadiazol-3-yl}-cyclobutyl)-phenyl]-pyrimidin-2-ylamine] yielded an IC50 [1] of 0.0014 µM and an IC50 [2] of 0.098 µM.
Compound `CS(=O)(=O)CCNc1ccc(-c2nc(C3(c4ccc(-c5cnc(N)nc5)cc4)CCC3)no2)cn1` [Example 108, 5-[4-(1-{5-[6-(2-Methanesulfonyl-ethylamino)-pyridin-3-yl]-1,2,4-oxadiazol-3-yl}-cyclobutyl)-phenyl]-pyrimidin-2-ylamine] has an IC50 [1] of 0.0013 µM and an IC50 [2] of 0.11 µM.
With `CS(=O)(=O)N1CCN(c2ccc(-c3nc(C4(c5ccc(-c6cnc(N)nc6)cc5)CCC4)no3)cn2)CC1` [Example 109, 5-[4-(1-{5-[6-(4-Methanesulfonyl-piperazin-1-yl)-pyridin-3-yl]-1,2,4-oxadiazol-3-yl}-cyclobutyl)-phenyl]-pyrimidin-2-ylamine] the IC50 [1] was 0.0013 µM and the IC50 [2] was 0.098 µM.
In the case of `CS(=O)(=O)C1CCN(c2ccc(-c3nc(C4(c5ccc(-c6cnc(N)nc6)cc5)CCC4)no3)cn2)C1` (stereo not shown) [Example 110, 5-[4-(1-{5-[6-(3-Methanesulfonyl-pyrrolidin-1-yl)-pyridin-3-yl]-1,2,4-oxadiazol-3-yl}-cyclobutyl)-phenyl]-pyrimidin-2-ylamine], the IC50 [1] is reported as 0.00092 µM and the IC50 [2] is reported as 0.11 µM.
`COCCNc1ccc(-c2nc(C3(c4ccc(-c5cnc(N)nc5)cc4)CCC3)no2)nn1` [Example 111, [6-(3-{1-[4-(2-amino-pyrimidin-5-yl)-phenyl]-cyclobutyl}-1,2,4-oxadiazol-5-yl)-pyridazin-3-yl]-(2-methoxy-ethyl)-amine] was tested, and the IC50 [1] was 0.0012 µM and the IC50 [2] was 0.032 µM.
With `Nc1ncc(-c2ccc(C3(c4noc(-c5ccc(NCCO)nn5)n4)CCC3)cc2)cn1` [Example 112, 2-[6-(3-{1-[4-(2-Amino-pyrimidin-5-yl)-phenyl]-cyclobutyl}-1,2,4-oxadiazol-5-yl)-pyridazin-3-ylamino]-ethanol] the IC50 [1] was 0.0014 µM and the IC50 [2] was 0.76 µM.
`CN(CCO)c1ccc(-c2nc(C3(c4ccc(-c5cnc(N)nc5)cc4)CCC3)no2)nn1` [Example 113, 2-{[6-(3-{1-[4-(2-Amino-pyrimidin-5-yl)-phenyl]-cyclobutyl}-1,2,4-oxadiazol-5-yl)-pyridazin-3-yl]-methyl-amino}-ethanol] was tested, and the IC50 [1] was 0.0016 µM and the IC50 [2] was 0.1 µM.
In the case of `CC(C)(O)CNc1ccc(-c2nc(C3(c4ccc(-c5cnc(N)nc5)cc4)CCC3)no2)nn1` [Example 114, 1-[6-(3-{1-[4-(2-Amino-pyrimidin-5-yl)-phenyl]-cyclobutyl}-1,2,4-oxadiazol-5-yl)-pyridazin-3-ylamino]-2-methyl-propan-2-ol], the IC50 [1] is reported as 0.0026 µM and the IC50 [2] is reported as 0.29 µM.
With `Nc1ncc(-c2ccc(C3(c4noc(-c5ccc(NCCN6CCOCC6)nn5)n4)CCC3)cc2)cn1` [Example 115, [6-(3-{1-[4-(2-Amino-pyrimidin-5-yl)-phenyl]-cyclobutyl}-1,2,4-oxadiazol-5-yl)-pyridazin-3-yl]-(2-morpholin-4-yl-ethyl)-amine] the IC50 [1] was 0.0033 µM and the IC50 [2] was 0.14 µM.
In the case of `Nc1ncc(-c2ccc(C3(c4noc(-c5ccc(N6CCNCC6)nc5)n4)CCC3)cc2)cn1` [Example 116, 5-(4-{1-[5-(6-piperazin-1-yl-pyridin-3-yl)-1,2,4-oxadiazol-3-yl]-cyclobutyl}-phenyl)-pyrimidin-2-ylamine], the IC50 [1] is reported as 0.0018 µM and the IC50 [2] is reported as 0.15 µM.

From patent US8580829B2 (Boehringer Ingelheim International GmbH, priority 2010, dated 2013)
